Literature values in patent publication US12233048B2 (Société des Produits Nestlé S.A., priority 2022, dated 2025).

## COc1ccc2[nH]cc(CCNC(C)=O)c2c1 [melatonin, N-acetyl-5-methoxytryptamine]
After ingestion
  time after ingestion for blood plasma concentration to reach its peak: more than 30 minutes
Exogenous melatonin
  bioavailability: poor and highly variable
